The record followed here is US9499550B2 (BRISTOL-MYERS SQUIBB COMPANY, priority 2012, dated 2016).

The test system of assay [1] is HCV genotype 1a (H77 strain) replicon in HUH-7 cells. Nature of the assay: HCV replicon luciferase reporter assay, genotype 1a. Conditions: Hepatitis C virus, Huh-7, 72 h, HCV genotype 1a replicon luciferase, 3 days incubation. The assay is classed as cell-based. The gist of the method:
(§1)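 Replicon inhibition for both genotypes was measured as Renilla luciferase signal (EnduRen, 7.5 μM final, 2 h) after 3-day, 37° C exposure of replicon-bearing HUH-7 cells in 4% FCS DMEM, 0.5% DMSO. The 1b construct carries S1179I; the 1a H77 construct carries P1496L and S2204I. Twenty-point, 3-fold dilutions were fitted four-parametrically for EC50, and CC50 was taken from multiplexed Cell Titer-Blue.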
(A replicon is a self-replicating genome or part of one, used to study replication in cells.)

The subject of assay [2] is HCV genotype 1b (Con1) replicon in HUH-7 cells. Put plainly: HCV replicon luciferase reporter assay, genotype 1b. In kind it is cell-based. Conditions: Hepatitis C virus, Huh-7, 72 h, HCV genotype 1b replicon luciferase, 3 days incubation. The gist of the method:
as §1

Each structure is given as a SMILES string. Where two headings read alike, the source gives them in different places.

What is called EC50 is the concentration that produces a half-maximal response.

`CC[C@@H]1C[C@@H](C)CC/C=C\[C@@H]2C[C@@]2(C(=O)NS(=O)(=O)C2(C)CC2)NC(=O)[C@@H]2C[C@@H](Oc3nnc(OC)c4ccccc34)CN2C(=O)[C@H]1NC(=O)NC(C)(C)C` [Compound 5023, (2R,6S,7R,9S,13aS,14aR,16aS,Z)-6-(3-(tert-butyl)ureido)-7-ethyl-2-((4-methoxyphthalazin-1-yl)oxy)-9-methyl-N-((1-methylcyclopropyl)sulfonyl)-5,16-dioxo-1,2,3,5,6,7,8,9,10,11,13a,14,14a,15,16,16a-hexadecahydrocyclopropa[e]pyrrolo[1,2-a][1,4]diazacyclopentadecine-14a-carboxamide]: the EC50 in assay [1] (read-out: LE_1a (EC50)) is 16 nM; in assay [1] (read-out: LE_1a (EC50, range)), 4.82 to 103 nM; in assay [2] (read-out: LE_1b (EC50)) it was 24.6 nM; in assay [2] (read-out: LE_1b (EC50, range)) it was 4.82 to 103 nM.

Turning to `CC[C@@H]1C[C@H](C)CC/C=C\[C@@H]2C[C@@]2(C(=O)NS(=O)(=O)C2(C)CC2)NC(=O)[C@@H]2C[C@@H](Oc3nnc(OC)c4ccccc34)CN2C(=O)[C@H]1NC(=O)NC(C)(C)C` [Compound 5024, (2R,6S,7R,9R,13aS,14aR,16aS,Z)-6-(3-(tert-butyl)ureido)-7-ethyl-2-((4-methoxyphthalazin-1-yl)oxy)-9-methyl-N-((1-methylcyclopropyl)sulfonyl)-5,16-dioxo-1,2,3,5,6,7,8,9,10,11,13a,14,14a,15,16,16a-hexadecahydrocyclopropa[e]pyrrolo[1,2-a][1,4]diazacyclopentadecine-14a-carboxamide], the EC50 in assay [1] (read-out: LE_1a (EC50, range)) was less than 5.46 nM; in assay [2] (read-out: LE_1b (EC50, range)), less than 5.46 nM.

With `CC[C@@H]1C[C@@H](C)CC/C=C\[C@@H]2C[C@@]2(C(=O)NS(=O)(=O)C2(C)CC2)NC(=O)[C@@H]2C[C@@H](Oc3nnc(OC)c4ccccc34)CN2C(=O)[C@H]1NC(=O)OC(C)(C)C` [Compound 5025, tert-butyl ((2R,6S,7R,9S,13aS,14aR,16aS,Z)-7-ethyl-2-((4-methoxyphthalazin-1-yl)oxy)-9-methyl-14a-(((1-methylcyclopropyl)sulfonyl)carbamoyl)-5,16-dioxo-1,2,3,5,6,7,8,9,10,11,13a,14,14a,15,16,16a-hexadecahydrocyclopropa[e]pyrrolo[1,2-a][1,4]diazacyclopentadecin-6-yl)carbamate], the EC50 in assay [1] (read-out: LE_1a (EC50, range)) is 4.82 to 103 nM; in assay [2] (read-out: LE_1b (EC50, range)), less than 5.46 nM.

As to `CC[C@@H]1C[C@H](C)CC/C=C\[C@@H]2C[C@@]2(C(=O)NS(=O)(=O)C2(C)CC2)NC(=O)[C@@H]2C[C@@H](Oc3nnc(OC)c4ccccc34)CN2C(=O)[C@H]1NC(=O)OC(C)(C)C` [Compound 5026, tert-butyl ((2R,6S,7R,9R,13aS,14aR,16aS,Z)-7-ethyl-2-((4-methoxyphthalazin-1-yl)oxy)-9-methyl-14a-(((1-methylcyclopropyl)sulfonyl)carbamoyl)-5,16-dioxo-1,2,3,5,6,7,8,9,10,11,13a,14,14a,15,16,16a-hexadecahydrocyclopropa[e]pyrrolo[1,2-a][1,4]diazacyclopentadecin-6-yl)carbamate], the EC50 in assay [1] (read-out: LE_1a (EC50, range)) was less than 5.46 nM; in assay [2] (read-out: LE_1b (EC50, range)), less than 5.46 nM.

As for `COc1nnc(O[C@@H]2C[C@H]3C(=O)N[C@]4(C(=O)NS(=O)(=O)C5(CF)CC5)C[C@H]4/C=C\CC[C@@H](C)C[C@@H](C)[C@H](NC(=O)OC(C)(C)C(F)(F)F)C(=O)N3C2)c2ccccc12` [Compound 5027], the EC50 in assay [1] (GETYPE1A, read-out: LE_1a (EC50, range)) is less than 5.46 nM; in assay [2] (GETYPE1B, read-out: LE_1b (EC50, range)), less than 5.46 nM.

As to `CCOc1nnc(O[C@@H]2C[C@H]3C(=O)N[C@]4(C(=O)NS(=O)(=O)C5(C)CC5)C[C@H]4/C=C\CC[C@H](C)C[C@@H](C)[C@H](NC(=O)OC(C)(C)C)C(=O)N3C2)c2ccccc12` [Compound 5028, tert-butyl ((2R,6S,7R,9S,13aS,14aR,16aS,Z)-2-((4-ethoxyphthalazine-1-yl)oxy)-7,9-dimethyl-14a-(((1-methylcyclopropyl)sulfonyl)carbamoyl)-5,16-dioxo-1,2,3,5,6,7,8,9,10,11,13a,14,14a,15,16,16a-hexadecahydrocyclopropa[e]pyrrolo[1,2-a][1,4]diazacyclopentadecin-6-yl)carbamate], the concentration giving a half-maximal response (EC50) in assay [1] (read-out: LE_1a (EC50)) is 6.28 nM; in assay [1] (read-out: LE_1a (EC50, range)), 4.82 to 103 nM; in assay [2] (read-out: LE_1b (EC50)) it was 2.96 nM; in assay [2] (read-out: LE_1b (EC50, range)), less than 5.46 nM.
